Measured values reported in US20260232851A1, “METHODS FOR THE DETECTION AND DIAGNOSIS OF CANCERS ASSOCIATED WITH OVEREXPRESSION OF PSMA RECEPTOR” (CLARITY PHARMACEUTICALS LIMITED, priority 2023, published 2026).

What was measured:
PSMA receptor = target: T1, PSMA receptor (Homo sapiens, UniProt Q04609); test: Same-day (Day 0) versus next-day (Day 1) PET imaging of patients; assay type: in vivo; conditions: ^18F-labelled ligand as SOC
T1 construct: localises at sites that overexpress the PSMA receptor and are indicative of a cancer; from tissue; host or cells: Primary prostate cancer and metastatic lesions (lymph node, bone, prostatic bed) in living patients

LNCap tumor = conditions: mouse, in vivo
Source text: Ex vivo tumor uptake expressed as percentage injected activitiy per gram of tissue (% lAg) (mean±/−SEM, n=3/group) in LNCap tumor bearing NSG mice following injection of either monomeric [^64Cu]Cu-SarPSMA (2 MBq, 0.9 nmol of peptide) or dimeric [^64Cu]Cu-Sar-bisPSMA (2 MBq, 0.2 nmol of peptide).

T1 sequence (Q04609 whole entry): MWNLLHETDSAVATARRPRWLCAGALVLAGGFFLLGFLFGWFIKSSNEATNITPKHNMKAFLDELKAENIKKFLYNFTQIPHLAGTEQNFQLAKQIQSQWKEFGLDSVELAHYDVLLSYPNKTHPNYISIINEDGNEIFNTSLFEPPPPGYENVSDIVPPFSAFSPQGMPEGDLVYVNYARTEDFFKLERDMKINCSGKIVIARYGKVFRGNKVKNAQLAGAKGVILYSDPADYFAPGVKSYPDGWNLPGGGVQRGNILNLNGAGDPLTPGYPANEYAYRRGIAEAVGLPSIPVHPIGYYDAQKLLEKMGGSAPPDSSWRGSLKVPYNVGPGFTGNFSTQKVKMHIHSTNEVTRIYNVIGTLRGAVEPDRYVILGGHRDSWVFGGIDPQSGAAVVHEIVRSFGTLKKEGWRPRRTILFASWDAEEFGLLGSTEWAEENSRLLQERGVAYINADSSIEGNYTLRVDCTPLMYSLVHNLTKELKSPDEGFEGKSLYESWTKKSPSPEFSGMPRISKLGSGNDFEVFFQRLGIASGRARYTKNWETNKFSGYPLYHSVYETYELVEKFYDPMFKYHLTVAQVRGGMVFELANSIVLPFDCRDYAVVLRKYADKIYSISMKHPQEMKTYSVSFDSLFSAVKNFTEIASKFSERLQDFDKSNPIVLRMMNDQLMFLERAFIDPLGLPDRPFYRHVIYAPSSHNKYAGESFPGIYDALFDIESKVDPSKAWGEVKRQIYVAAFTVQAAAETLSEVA

SMILES | Screening result on SOC PET/CT (FIG. 9A) (PSMA receptor) | Uptake and retention at tumors, dimer versus monomer (FIG. 1) (LNCap tumor)
O=C(O)CC[C@H](NC(=O)N[C@@H](CCCCNC(=O)c1ccc([18F])nc1)C(=O)O)C(=O)O [^18F-DCFPyL, DCFPyL, reference compound] | negative/equivocal | 
CC12CNCCNCC(NC(=O)CCCC(=O)N[C@H](Cc3ccccc3)C(=O)N[C@H](Cc3ccccc3)C(=O)NCCCCCCCC(=O)NCCCC[C@H](NC(=O)N[C@@H](CCC(=O)O)C(=O)O)C(=O)O)(CNCCNC1)CNCCNC2 [^64Cu-SarPSMA, metal not drawn] |  | less uptake and retention
